Source: patent publication US20220339179A1, “TREATMENT OF HR DEFICIENT CANCER” (THE FRANCIS CRICK INSTITUTE LIMITED, priority 2019, published 2022)

Legend:
[1] = test system: eHAP MUS81−/− cells; assay: Cell viability assay (CellTiter-Glo), eHAP MUS81−/− cells; assay type: cell-based, human; conditions: for effect on viability, agent alone: single agent
Method: (§1) For analysis of cell viability following exposure to olaparib (Selleckchem), deoxyribonucleosides and DNPH1i (N6-benzyladenosine, Carbosynth), cells were seeded in 96-well plates at a density of 100-500 cells per well. Twenty-four hours post-seeding, drug treatments were initiated, and cells were continuously exposed until termination of the experiment. Cell viability was measured using CellTiter-Glo (Promega). The surviving fractions were measured, and drug sensitivity curves were plotted using GraphPad Prism. The following nucleosides were purchased from commercial sources: dU (2′-deoxyuridine), hdU (5-hydroxy-2′-deoxyuridine), hmdU (5-hydroxymethyl-2′-deoxyuridine), mdC (5-methyl-2′-deoxycytidine), hmdC (5-hydroxymethyl-2′-deoxycytidine), cadC (5-carboxy-2-deoxycytidine), fodC (5-formyl-2-deoxycytidine), dl (2′-deoxyinosine), dX (2′-deoxyxanthosine), 8odG (8-oxo-2′-deoxyguanosine), hmU (5 hydroxymethyluridine), hmC (5-hydroxymethyl-cytidine). fodU (5-formyl-2′-deoxyuridine) was synthesized as previously described (Guo et al Org. Biomol. Chem. 11, 1610-1613 (2013).

[2] = test system: eHAP MUS81−/−DNPH1−/− cells; assay: Cell viability assay (CellTiter-Glo), eHAP MUS81−/−DNPH1−/− cells; assay type: cell-based, human; conditions: for sensitivity of MUS81/DNPH1 k/o cells to nucleoside treatment (cell viability): nucleoside 200 nM, vs MUS81 k/o; for sensitisation to PARP inhibitor by loss of DNPH1: vs MUS81 k/o cells, continuous treatment 6 days
Method: as §1

[3] = target: T1, recombinant human DNPH1 (Homo sapiens, UniProt O43598); assay: DNPH1 in vitro activity assay (RP-HPLC); assay type: biochemical; conditions: for DNPH1 activity towards nucleoside monophosphate substrates: DNPH1 4 μM, substrate 1 mM, 45 min, RP-HPLC
T1 construct: His6 (N); made in house; host or cells: E. coli BL21 (pET28a)
T1 sequence (O43598 1-174): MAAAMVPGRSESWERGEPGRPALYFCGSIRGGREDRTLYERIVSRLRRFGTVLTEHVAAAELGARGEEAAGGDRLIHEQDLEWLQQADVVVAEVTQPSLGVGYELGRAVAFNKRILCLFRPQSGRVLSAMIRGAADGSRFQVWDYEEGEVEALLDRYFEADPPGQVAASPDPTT
Method: HIS6DNPH1 and HIS6DNPH1E105Q, cloned in pET28a were transformed into BL21 cells. Transformed cells were inoculated into 2 L of TB media supplemented with 50 μg/ml kanamycin and incubated 37° C. until an OD600=1.0. IPTG (0.5 mM) was added and incubation continued for 4 hours. Cells were harvested by centrifugation and resuspended in lysis buffer (50 mM HEPES pH 7.5, 300 mM NaCl, 5% glycerol, 0.5 mM TCEP) supplemented with protease inhibitors (Complete EDTA-free tablets, Roche). Cells were lysed by passage through an Emulsiflex C5 (Avestin) at […], and the chromatin sheared by sonication at 50% maximum amplitude for 2×30 sec. Soluble proteins were isolated by ultracentrifugation (Beckman Type JLA25.50 rotor) at 60,000×g for 60 min (4° C.). Soluble extract was supplemented with 30 mM imidazole and incubated with 2 ml Ni-NTA beads (GE Healthcare) for 1 hour (4° C.). The beads were washed (50 mM HEPES pH 7.5, 300 mM NaCl, 30 mM imidazole, 5% glycerol, 0.5 mM TCEP) and protein eluted (50 mM HEPES pH7.5, 300 mM NaCl, 200 mM imidazole, 5% glycerol, 0.5 mM TCEP). The eluates were pooled, diluted dropwise to 100 mM NaCl (50 mM HEPES pH 7.5, 5% glycerol, 0.5 mM DTT) and DNPH1 further purified using a 5 ml HiTRAP QHP column (GE Healthcare), followed by a Superdex 200 Increase 10/300 column (GE Healthcare). Peak fractions were separated by SDS-PAGE and visualized with Instant Blue (Gentaur). Peak fractions were frozen in aliquots and stored at −80° C.
DNPH1 (4 μM) was incubated with nucleoside monophosphates (1 mM) in 20 mM sodium phosphate, pH 7.0, 150 mM NaCl, 2 mM MgCl2. After 45 min at room temperature the reaction was quenched by addition of 0.7% perchloric acid followed by immediate neutralization with addition of sodium acetate to 200 mM. Samples were diluted 1:10 into RP-Buffer (100 mM K2HPO4/KH2PO4, pH 6.5, 10 mM tetrabutylammonium bromide, 7% acetonitrile) and the nucleotides and reaction products separated from precipitated protein by filtration through a 0.22 μm centrifugal filter (Durapore-PVDF, Millipore). Samples of each reaction (5 nmol) were applied to a Zorbax SB-C18 column (4.6×250 mm, 3.5 μm, 80A pore size, Agilent Technologies), maintained at 30° C. and mounted on a Jasco HPLC system controlled by Chromnav software (v1.19, Jasco). Nucleoside monophosphates and reaction products were separated under isocratic flow by application of RP-Buffer at 1 mL/min. Absorbance data from the column eluent was continuously monitored between 200-400 nm (2 nm interval) using an MD-2010 photodiode array detector (JASCO). […] Peak integration of the absorbance data recorded at 260 nm was used to quantify the amount of substrate and product. […] The rate was determined by linear regression of a plot of product against reaction time.

[4] = test system: DCTD k/o cell lines; assay: Cell viability, DCTD k/o cell lines; assay type: cell-based
Method: as §1

[5] = test system: eHAP WT and MUS81−/− isogenic cells; assay: LD80 dose used in genome-wide CRISPR-Cas9 screen; assay type: cell-based, human; conditions: 10 days
Method: eHAP WT and MUS81−/− isogenic cells were transduced with a genome-wide lentiviral lentiCRISPRv2 sgRNA library (Doench et al 2016, PMID: 26780180) using multiplicity of infection (MOI) of ˜0.5 with a complexity of 400 cells/sgRNA. Transduced cells were selected with puromycin (0.4 mg/ml), expanded for 7 days, and sub-cultured in the presence or absence of an LD80 dose of olaparib (200 nM) or hmdC (1000 nM) for 10 days. Surviving cells were collected and genomic DNA was extracted using DNeasy Blood & Tissue Kit (Qiagen) supplemented with RNAse (Qiagen) according to the manufacturer's instructions. The CRISPR screens were carried out in biological triplicates. Libraries for Illumina sequencing were generated by two-step PCR amplification. In the first PCR, the sgRNA library was amplified and adaptors were added using nesting primers and the second PCR added barcodes, stagger regions, flow cell attachment and Illumina sequencing primers.
MUS81 k/o cells were transduced with the lentiviral-based Brunello genome-wide gRNA library (J. G. Doench et al Nat. Biotechnol. 34, 184-191 (2016)), followed by treatment with olaparib for 10 days. […] Bioinformatic analysis of the gRNA reads using the MAGeCK algorithm identified several novel, as well as previously reported, factors determining PARPi efficacy (FIG. 1).

[6] = test system: SUM149 BRCA1mut (parental) cells; assay: Cell viability assay, SUM149 BRCA1mut (parental) cells; assay type: cell-based, human; conditions: olaparib 250 nM or hmdU 2 μM, 8 days
Method: as §1

[7] = test system: DLD1 BRCA2−/− cells; assay: Cell viability assay, DLD1 BRCA2−/− cells; assay type: cell-based; conditions: olaparib 10 nM or hmdU 2 μM, 10 days
Method: as §1

Structure (SMILES): OC[C@H]1O[C@@H](n2cnc3c(NCc4ccccc4)ncnc32)[C@H](O)[C@@H]1O [DNPH1i, N6-benzyladenosine]
- effect on viability, agent alone [1]: no effect on viability
- effect of DNPH1i on viability (specificity control) ([1]; with hmdU, 6 days, cells with DNPH1 (text: wild-type)): dose-dependent decrease in viability
- effect of DNPH1i on viability (specificity control) ([2]; with hmdU, 6 days, DNPH1 k/o cells): only a marginal effect

Structure (SMILES): O=c1ccn([C@@H]2O[C@H](COP(=O)(O)O)[C@@H](O)[C@H]2O)c(=O)[nH]1 [UMP]
- DNPH1 activity towards nucleoside monophosphate substrates [3]: Little or no activity

Structure (SMILES): O=c1ccn([C@H]2C[C@H](O)[C@@H](COP(=O)(O)O)O2)c(=O)[nH]1 [dUMP]
- DNPH1 activity towards nucleoside monophosphate substrates [3]: Little or no activity

Structure (SMILES): O=Cc1cn([C@H]2C[C@H](O)[C@@H](CO)O2)c(=O)[nH]c1=O [fodU, 5-formyl-2′-deoxyuridine]
- sensitivity of MUS81/DNPH1 k/o cells to nucleoside treatment (cell viability) ([2]; 6 days): to a lesser extent

Structure (SMILES): Nc1nc(=O)n([C@H]2C[C@H](O)[C@@H](CO)O2)cc1CO [hmdC, 5-hydroxymethyl-2′-deoxycytidine]
- sensitivity of MUS81/DNPH1 k/o cells to nucleoside treatment (cell viability) ([2]; 6 days): to a lesser extent
- resistance of DCTD k/o cells to nucleoside treatment [4]: completely resistant
- LD80 dose [5]: 1000 nM

Structure (SMILES): O=c1[nH]c(=O)n([C@H]2C[C@H](O)C(COP(=O)(O)O)O2)cc1CO (some centres unmarked) [hmdUMP]
- DNPH1 activity towards nucleoside monophosphate substrates [3]: efficiently hydrolyzed
- reaction rate of hmdUMP hydrolysis by DNPH1 ([3]; DNPH1 (2 μM), samples quenched at intervals up to 20 minutes, linear regression): 14.6 ± 0.4 µM/min

Structure (SMILES): O=C(c1cc(Cc2n[nH]c(=O)c3ccccc23)ccc1F)N1CCN(C(=O)C2CC2)CC1 [olaparib, 1-(Cyclopropylcarbonyl)-4-[5-[(3,4-dihydro-4-oxo-1-phthalazinyl)methyl]-2-fluorobenzoyl]piperazine]
- effect on viability, agent alone [1]: limited effect on viability
- sensitisation to PARP inhibitor by loss of DNPH1 [2]: sensitized
- effect on viability, agent alone [6]: limited effect on viability
- effect on viability, agent alone [7]: limited effect on viability
- LD80 dose [5]: 200 nM

Structure (SMILES): Cn1ncnc1[C@H]1c2n[nH]c(=O)c3cc(F)cc(c23)N[C@@H]1c1ccc(F)cc1 [talazoparib, (8S,9R)-5-Fluoro-8-(4-fluorophenyl)-9-(1-methyl-1H-1,2,4-triazol-5-yl)-2,7,8,9-tetrahydro-3H-pyrido[4,3,2-de]phthalazin-3-one]
- effect on viability, agent alone [1]: limited effect on viability
- sensitisation to PARP inhibitor by loss of DNPH1 [2]: sensitised

Structure (SMILES): C[C@]1(c2nc3c(C(N)=O)cccc3[nH]2)CCCN1 [veliparib, 2-[(2R)-2-Methyl-2-pyrrolidinyl]-1H-benzimidazole-4-carboxamide]
- effect on viability, agent alone [1]: limited effect on viability
- sensitisation to PARP inhibitor by loss of DNPH1 [2]: sensitised
